# Data as given in patent US6984649B1, “Pyridine derivatives” (Bayer Aktiengesellschaft, priority 2000, dated 2006).
# Target: T1, human IKK-β (Homo sapiens, UniProt O14920)
# T1 construct: A cDNA fragment encoding human IKK-β open reading frame was generated by PCR; His tag (from pcDNA3.1/His C); made in house; host or cells: Sf21 insect cells (baculovirus); substrate made in E. coli
# T1 sequence (O14920 1-756): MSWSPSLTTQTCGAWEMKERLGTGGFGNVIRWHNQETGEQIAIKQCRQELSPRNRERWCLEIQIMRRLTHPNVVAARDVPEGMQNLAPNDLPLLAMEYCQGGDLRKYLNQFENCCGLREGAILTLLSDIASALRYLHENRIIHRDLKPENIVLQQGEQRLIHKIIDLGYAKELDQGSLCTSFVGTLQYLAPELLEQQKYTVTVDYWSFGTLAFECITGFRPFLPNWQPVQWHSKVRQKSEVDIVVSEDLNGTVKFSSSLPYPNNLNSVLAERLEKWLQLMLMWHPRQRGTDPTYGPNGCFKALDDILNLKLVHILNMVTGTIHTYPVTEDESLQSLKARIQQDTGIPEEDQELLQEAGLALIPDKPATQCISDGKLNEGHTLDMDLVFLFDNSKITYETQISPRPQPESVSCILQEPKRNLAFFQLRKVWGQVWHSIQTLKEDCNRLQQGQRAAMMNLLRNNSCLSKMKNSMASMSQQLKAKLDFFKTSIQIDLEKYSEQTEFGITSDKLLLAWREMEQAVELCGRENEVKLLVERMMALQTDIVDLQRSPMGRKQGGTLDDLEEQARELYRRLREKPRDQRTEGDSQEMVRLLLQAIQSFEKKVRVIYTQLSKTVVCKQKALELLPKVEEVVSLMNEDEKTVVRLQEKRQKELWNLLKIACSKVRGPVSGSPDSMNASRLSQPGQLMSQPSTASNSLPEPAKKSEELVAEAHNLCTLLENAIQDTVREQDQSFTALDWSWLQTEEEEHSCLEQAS
# Assay: IKK-β kinase inhibitory assay
# Type: biochemical
# Conditions: compounds as yielded by solid phase synthesis, purity about 40 to 90%, read-out: In vitro activity grade (In vitro IC50)
# How it was run: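 His-tagged human IKK-β from baculovirus-infected Sf21 cells (0.6 μg/ml final) phosphorylates biotinylated GST-IκBα(1-54) (0.2 μM) in Tris-HCl pH 7.6 buffer with MgCl2. ATP with [γ-33P]ATP added, then 2 h at room temperature. Biotinylated substrate captured on streptavidin plates; bound radioactivity counted by scintillation.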
row,Compound,IC50
1,N#Cc1c(C2CCNCC2)cc(-c2ccccc2O)nc1N [Example 1-13],< 500 nM
2,N#Cc1c(C2CCCCN2)cc(-c2ccccc2O)nc1N (centres unmarked) [Example 1-14],500 to 2000 nM
3,N#Cc1c(C2CNCCN2)cc(-c2ccccc2O)nc1N (centres unmarked) [Example 1-15],500 to 2000 nM
4,Cc1cccc(-c2cc(C3CCCNC3)c(C#N)c(N)n2)c1O (centres unmarked) [Example 1-17],500 to 2000 nM
5,N#Cc1c(C2CCCNC2)cc(-c2ccc(O)cc2O)nc1N (centres unmarked) [Example 1-18],500 to 2000 nM
6,N#Cc1c(C2CCCNC2)cc(-c2cccc(F)c2O)nc1N (centres unmarked) [Example 1-19],< 500 nM
7,N#Cc1c(C2CCCNC2)cc(-c2cccc(Cl)c2O)nc1N (centres unmarked) [Example 1-20],< 500 nM
8,Cc1cccc(O)c1-c1cc(C2CCCNC2)c(C#N)c(N)n1 (centres unmarked) [Example 1-21],2000 to 10000 nM
9,N#Cc1c(C2CCC(N)CC2)cc(-c2ccccc2O)nc1N (centres unmarked) [Example 1-22],< 500 nM
10,N#Cc1c(C2CCCC(N)C2)cc(-c2ccccc2O)nc1N (centres unmarked) [Example 1-23],< 500 nM
11,N#Cc1c([C@@H](N)Cc2ccccc2)cc(-c2ccccc2O)nc1N [Example 1-25],< 500 nM
12,COc1ccc(C[C@H](N)c2cc(-c3ccccc3O)nc(N)c2C#N)cc1 [Example 1-26],< 500 nM
13,CCCC[C@H](N)c1cc(-c2ccccc2O)nc(N)c1C#N [Example 1-28],< 500 nM
14,N#Cc1c([C@@H](N)CCc2ccccc2)cc(-c2ccccc2O)nc1N [Example 1-29],500 to 2000 nM
15,N#Cc1c([C@@H](N)Cc2ccc(F)cc2)cc(-c2ccccc2O)nc1N [Example 1-30],< 500 nM
16,N#Cc1c([C@@H]2CCCN2)cc(-c2ccccc2O)nc1N [Example 1-31],500 to 2000 nM
17,C[C@H](N)c1cc(-c2ccccc2O)nc(N)c1C#N [Example 1-32],< 500 nM
18,CC(C)[C@H](N)c1cc(-c2ccccc2O)nc(N)c1C#N [Example 1-33],< 500 nM
19,N#Cc1c([C@H](N)Cc2ccccc2)cc(-c2ccccc2O)nc1N [Example 1-34],< 500 nM
20,N#Cc1c(CC(N)c2ccccc2)cc(-c2ccccc2O)nc1N (centres unmarked) [Example 1-35],< 500 nM
21,CC(N)Cc1cc(-c2ccccc2O)nc(N)c1C#N (centres unmarked) [Example 1-36],< 500 nM
22,N#Cc1c(CCN)cc(-c2ccccc2O)nc1N [Example 1-37],< 500 nM

row,Compound,IC50
1,N#Cc1c(C2CCC(C(=O)O)CC2)cc(-c2ccccc2O)nc1N (centres unmarked) [Example 1-38],< 500 nM
2,CCc1cc(-c2ccccc2O)nc(N)c1C#N [Example 1-39],2000 to 10000 nM
3,N#Cc1c([C@H](Cc2ccccc2)NC(=O)CCN2CCCCC2)cc(-c2ccccc2O)nc1N [Example 1-40],500 to 2000 nM
4,N#Cc1c(C2CCCN(C(=O)CCN3CCCCC3)C2)cc(-c2ccccc2O)nc1N (centres unmarked) [Example 1-41],500 to 2000 nM
5,CS(=O)(=O)N1CCCC(c2cc(-c3ccccc3O)nc(N)c2C#N)C1 (centres unmarked) [Example 1-42],2000 to 10000 nM
6,CCCN(CCC)C1CCCC(c2cc(-c3ccccc3O)nc(N)c2C#N)C1 (centres unmarked) [Example 1-43],< 500 nM
7,N#Cc1c(CCO)cc(-c2ccccc2O)nc1N [Example 1-44],500 to 2000 nM
8,Cc1cccc(COc2cccc(O)c2-c2cc(C3CCCNC3)c(C#N)c(N)n2)c1 (centres unmarked) [Example 2-07],< 500 nM
9,Cc1ccc(COc2cccc(O)c2-c2cc(C3CCCNC3)c(C#N)c(N)n2)cc1 (centres unmarked) [Example 2-08],< 500 nM
10,N#Cc1c(C2CCCNC2)cc(-c2c(O)cccc2OCc2cccc(C(F)(F)F)c2)nc1N (centres unmarked) [Example 2-09],< 500 nM
11,N#Cc1c(C2CCCNC2)cc(-c2c(O)cccc2OCc2ccc(C(F)(F)F)cc2)nc1N (centres unmarked) [Example 2-10],< 500 nM
12,N#Cc1c(C2CCCNC2)cc(-c2c(O)cccc2OCc2cccc(Br)c2)nc1N (centres unmarked) [Example 2-11],< 500 nM
13,N#Cc1c(C2CCCNC2)cc(-c2c(O)cccc2OCc2ccccc2[N+](=O)[O-])nc1N (centres unmarked) [Example 2-12],< 500 nM
14,N#Cc1c(C2CCCNC2)cc(-c2c(O)cccc2OCc2cccc([N+](=O)[O-])c2)nc1N (centres unmarked) [Example 2-13],< 500 nM
15,N#Cc1c(C2CCCNC2)cc(-c2c(O)cccc2OCc2ccc([N+](=O)[O-])cc2)nc1N (centres unmarked) [Example 2-14],< 500 nM
16,N#Cc1cccc(COc2cccc(O)c2-c2cc(C3CCCNC3)c(C#N)c(N)n2)c1 (centres unmarked) [Example 2-15],< 500 nM
17,N#Cc1ccc(COc2cccc(O)c2-c2cc(C3CCCNC3)c(C#N)c(N)n2)cc1 (centres unmarked) [Example 2-16],< 500 nM
18,N#Cc1c(C2CCCNC2)cc(-c2c(O)cccc2OCc2ccccc2Cl)nc1N (centres unmarked) [Example 2-17],< 500 nM
19,N#Cc1c(C2CCCNC2)cc(-c2c(O)cccc2OCc2cccc(Cl)c2)nc1N (centres unmarked) [Example 2-18],< 500 nM
20,N#Cc1c(C2CCCNC2)cc(-c2c(O)cccc2OCc2ccc(Cl)cc2)nc1N (centres unmarked) [Example 2-19],< 500 nM
21,N#Cc1c(C2CCCNC2)cc(-c2c(O)cccc2OCc2c(Cl)cccc2Cl)nc1N (centres unmarked) [Example 2-20],< 500 nM
22,N#Cc1c(C2CCCNC2)cc(-c2c(O)cccc2OCc2ccc3ccccc3c2)nc1N (centres unmarked) [Example 2-21],< 500 nM

row,Compound,IC50
1,N#Cc1c(C2CCCNC2)cc(-c2c(O)cccc2OCCC2CCCCC2)nc1N (centres unmarked) [Example 2-61],< 500 nM
2,N#Cc1c(C2CCCNC2)cc(-c2c(O)cccc2OCC2CCC2)nc1N (centres unmarked) [Example 2-62],< 500 nM
3,CC(C)CCCOc1cccc(O)c1-c1cc(C2CCCNC2)c(C#N)c(N)n1 (centres unmarked) [Example 2-63],< 500 nM
4,CCCCCCCOc1cccc(O)c1-c1cc(C2CCCNC2)c(C#N)c(N)n1 (centres unmarked) [Example 2-64],< 500 nM
5,N#Cc1c(C2CCCNC2)cc(-c2c(O)cccc2OCC2CC2)nc1N (centres unmarked) [Example 2-65],< 500 nM
6,CC(C)CCCOc1cccc(O)c1-c1cc(C2CCNCC2)c(C#N)c(N)n1 [Example 2-66],< 500 nM
7,CCCOc1cccc(O)c1-c1cc(C2CCNCC2)c(C#N)c(N)n1 [Example 2-67],< 500 nM
8,N#Cc1c(C2CCNCC2)cc(-c2c(O)cccc2OCC2CCC2)nc1N [Example 2-68],< 500 nM
9,CCCCCOc1cccc(O)c1-c1cc(C2CCNCC2)c(C#N)c(N)n1 [Example 2-69],< 500 nM
10,N#Cc1c(C2CCNCC2)cc(-c2c(O)cccc2OCCC2CCCCC2)nc1N [Example 2-70],< 500 nM
11,CC(C)COc1cccc(O)c1-c1cc(C2CCNCC2)c(C#N)c(N)n1 [Example 2-71],< 500 nM
12,CCCCCCCOc1cccc(O)c1-c1cc(C2CCNCC2)c(C#N)c(N)n1 [Example 2-73],< 500 nM
13,C=CCOc1cccc(O)c1-c1cc(C2CCNCC2)c(C#N)c(N)n1 [Example 2-74],< 500 nM
14,CCOc1cccc(O)c1-c1cc(C2CCNCC2)c(C#N)c(N)n1 [Example 2-75],< 500 nM
15,CCCCCCOc1cccc(O)c1-c1cc(C2CCNCC2)c(C#N)c(N)n1 [Example 2-76],< 500 nM
16,CC(C)(C)C(=O)COc1cccc(O)c1-c1cc(C2CCCNC2)c(C#N)c(N)n1 (centres unmarked) [Example 2-77],< 500 nM
17,CC(C)(C)C(=O)COc1cccc(O)c1-c1cc(C2CCNCC2)c(C#N)c(N)n1 [Example 2-78],< 500 nM
18,N#Cc1c(C2CCCNC2)cc(-c2c(O)cccc2OCC2CCCCO2)nc1N (centres unmarked) [Example 2-79],< 500 nM
19,N#Cc1c(C2CCCNC2)cc(-c2c(O)cccc2OCC2CCCO2)nc1N (centres unmarked) [Example 2-80],< 500 nM
20,N#Cc1c(C2CCCNC2)cc(-c2c(O)cccc2OCC2CCCO2)nc1N (centres unmarked) [Example 2-81],< 500 nM
21,N#Cc1c(C2CCNCC2)cc(-c2c(O)cccc2OCC2CCCO2)nc1N (centres unmarked) [Example 2-82],< 500 nM
